For experiment [1], the system named is CD206 expressing macrophages. Put plainly: Apoptosis induction (Annexin-V) in MOs and KS tumor tissue. The class given is cell-based.
Description: (§1) CD206 targeting assays were conducted using both in vitro monocyte-derived CD206+ macrophages (MOs) and ex vivo fresh Kaposi Sarcoma (KS) tumor tissue (provided by the AIDS and Cancer Specimen Resource [ACSR]). Tilmanocept-Cy3 with/without a chemo-therapeutic agent (CTA) attached (tilmanocept-Cy3-CTA or tilmanocept-Cy3) interactions with cellular and tumor targets were tracked by flow cytometry and immuno-histochemistry to evaluate Cy3-tilmanocept uptake and targeting capability for delivery of drug into KS tumor cells and TAMs.
In experiment [2] the test system is luciferase-expressing M tuberculosis H37Rv strain (M.tb-Lux). Put plainly: Anti-bacterial activity against M.tb in human macrophages (luminescence). In kind it is cell-based.
The test system of experiment [3] is fresh Kaposi Sarcoma (KS) tumor tissue.
Description: as §1
The next experiment concerns the target DC-SIGN (CD209) (Homo sapiens, UniProt Q9NNX6). Conditions: AF488-labeled tilmanocept, anti-DC-SIGN Ab staining.

DC-SIGN (CD209), sequence (Q9NNX6 whole entry): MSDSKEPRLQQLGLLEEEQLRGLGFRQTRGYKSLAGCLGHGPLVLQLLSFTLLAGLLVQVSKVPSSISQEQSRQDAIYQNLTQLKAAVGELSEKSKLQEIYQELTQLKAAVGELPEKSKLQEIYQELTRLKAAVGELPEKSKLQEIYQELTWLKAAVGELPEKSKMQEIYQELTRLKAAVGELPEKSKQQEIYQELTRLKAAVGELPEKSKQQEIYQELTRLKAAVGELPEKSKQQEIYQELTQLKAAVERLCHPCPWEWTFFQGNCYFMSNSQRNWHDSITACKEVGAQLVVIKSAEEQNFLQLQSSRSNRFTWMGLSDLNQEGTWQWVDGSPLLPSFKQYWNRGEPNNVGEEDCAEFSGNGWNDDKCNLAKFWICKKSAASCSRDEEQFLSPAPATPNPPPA
Description for DC-SIGN (CD209): The tissue sections were first deparaffinized with xylene, followed by rehydration with graded alcohols (100%, 95%). A heat-induced epitope retrieval procedure was carried out by heating the tissue slides in citrate buffer (pH 6.0) at 95° C. for 10 min (31). Each tissue section was rehydrated with PBS buffer, blocked (5% non-fat dry milk in PBS+0.01% sodium azide) for 3 h at room temperature, and then incubated with specific primary Abs using manufacturer-recommended dilutions in a humidified chamber at 4° C. overnight. After extensive washing with PBS, the sections were counter-stained with AF488-conjugated anti-mouse and AF549-conjugated anti-rabbit secondary Abs (double staining) for 1 h at room temperature. The sections were washed again extensively and stained with the nuclear DNA stain DAPI for 10 min at room temperature. After washing and drying at room temperature, the slides were examined by a Flow View 1000 Laser Scanning Confocal microscope (Olympus). The MFI of a randomly selected group of confocal images was quantified using a pixel intensity measurement (NIH Image J program).
FFPE lymph node tissue sections were subjected to the antigen retrieval procedure (see immunohistochemistry method above) followed by incubation with AF488-labeled tilmanocept and staining with anti-DC-SIGN Ab.

Take `COc1cccc2c1C(=O)c1c(O)c3c(c(O)c1C2=O)C[C@@](O)(C(=O)CO)C[C@@H]3O[C@H]1C[C@H](N)[C@H](O)[C@H](C)O1` [Docorubicin, doxorubicin]: the “toxicity to CD206 expressing macrophages (Annexin levels, FIG. 17)” value in experiment [1] is recorded as “no toxicity”. The “apoptosis induction on MOs and in tumor tissue” value in experiment [1] (Annexin-V, overnight) is on record as “less effect”. With `NNC(=O)c1ccncc1` [INH, isoniazid], the “lowest concentration at which activity against M.tb is maintained” value in experiment [2] was determined as 0.0312 µM. “dextran 3-[(2-aminoethyl)thio]propyl 17-carboxy-10,13,16-tris(carboxymethyl)-8-oxo-4-thia-7,10,13,16-tetraazaheptadec-1-yl 3-[[2-[[1-imino-2-(D-mannopyranosylthio)ethyl]amino]ethyl]thio]propyl ether complexes [Tilmanocept]”: the “uptake in KS biopsy tissue culture” value in experiment [3] is “uptake co-localized with CD206+ macrophages”. At DC-SIGN (CD209), the “binding to cells in lymph node tissue sections” value is listed as “bind in clusters to a population of DC-SIGN-positive cells”.

Values taken from patent US20220211680A1, “COMPOUNDS AND COMPOSITIONS FOR TARGETING MACROPHAGES AND OTHER MANNOSE-BINDING C-TYPE LECTIN RECEPTOR HIGH EXPRESSING CELLS AND METHODS OF TREATING AND DIAGNOSIS USING SAME” (priority 2014, published 2022).
